US6656947B2, “Antidepressant azaheterocyclylmethyl derivatives of 2,3-dihydro-1,4-dioxino[2,3-f]quinazoline” (Wyeth, priority 2001, dated 2003)

Tests used:
[1] = biological target: T1, cloned human 5-HT1A receptors (Homo sapiens, UniProt P08908); experiment: 35S-GTPγS binding assay, 5-HT1A antagonist activity; type: biochemical; details: reversal of the effects of standard agonist 8-OHDPAT on 35S-GTPγS binding; for IC50: membranes with cloned human 5-HT1A receptors, read-out: 5-HT1A Function IC50; for 5-HT1A Function Imax (maximum inhibitory effect): value in parentheses
T1 construct: expressed in transfected cells
T1 sequence (P08908 1-422): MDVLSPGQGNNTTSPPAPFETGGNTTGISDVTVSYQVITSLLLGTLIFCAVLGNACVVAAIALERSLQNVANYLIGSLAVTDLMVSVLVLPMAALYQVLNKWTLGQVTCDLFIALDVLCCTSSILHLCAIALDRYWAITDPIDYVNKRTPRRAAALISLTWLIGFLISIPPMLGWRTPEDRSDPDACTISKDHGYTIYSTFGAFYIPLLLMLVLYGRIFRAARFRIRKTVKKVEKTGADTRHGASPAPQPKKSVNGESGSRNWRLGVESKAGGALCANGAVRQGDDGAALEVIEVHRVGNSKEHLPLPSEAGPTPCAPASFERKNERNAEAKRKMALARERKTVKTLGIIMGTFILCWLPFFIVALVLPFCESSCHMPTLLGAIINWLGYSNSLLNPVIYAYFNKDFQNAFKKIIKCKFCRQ
Procedure: Antagonist activity at 5-HT1A receptors was established by using a ^35S-GTPγS binding assay similar to that used by Lazareno and Birdsall (Br. J. Pharmacol. 109: 1120, 1993), in which the test compound's ability to affect the binding of ^35S-GTPγS to membranes containing cloned human 5-HT1A receptors was determined. Agonists produce an increase in binding whereas antagonists produce no increase but rather reverse the effects of the standard agonist 8-OHDPAT. The test compound's maximum inhibitory effect is represented as the Imax, while its potency is defined by the IC50.

[2] = biological target: T2, human 5-HT1A receptors (Homo sapiens, UniProt P08908); experiment: [3H] 8-OHDPAT displacement, 5-HT1A receptor affinity; type: binding
T2 construct: expressed in transfected cells; host or cells: CHO cells
T2 sequence (P08908 1-422): T1 sequence (P08908 1-422)
Excerpt: High affinity for the serotonin 5-HT1A receptor was established by testing the claimed compound's ability to displace [^3H] 8-OHDPAT (dipropylamino-tetralin) from the 5-HT1A serotonin receptor following a modification of the procedure of Hall et al., J. Neurochem. 44, 1685 (1985) which utilizes CHO cells stably transfected with human 5-HT1A receptors.

[3] = biological target: T3, serotonin transporter (Rattus norvegicus, UniProt P31652); experiment: 3H-paroxetine displacement, serotonin transporter affinity; type: binding
T3 construct: displace ^3H-paroxetine from male rat frontal cortical membranes; from tissue; host or cells: male rat frontal cortex membranes
T3 sequence (P31652 whole entry): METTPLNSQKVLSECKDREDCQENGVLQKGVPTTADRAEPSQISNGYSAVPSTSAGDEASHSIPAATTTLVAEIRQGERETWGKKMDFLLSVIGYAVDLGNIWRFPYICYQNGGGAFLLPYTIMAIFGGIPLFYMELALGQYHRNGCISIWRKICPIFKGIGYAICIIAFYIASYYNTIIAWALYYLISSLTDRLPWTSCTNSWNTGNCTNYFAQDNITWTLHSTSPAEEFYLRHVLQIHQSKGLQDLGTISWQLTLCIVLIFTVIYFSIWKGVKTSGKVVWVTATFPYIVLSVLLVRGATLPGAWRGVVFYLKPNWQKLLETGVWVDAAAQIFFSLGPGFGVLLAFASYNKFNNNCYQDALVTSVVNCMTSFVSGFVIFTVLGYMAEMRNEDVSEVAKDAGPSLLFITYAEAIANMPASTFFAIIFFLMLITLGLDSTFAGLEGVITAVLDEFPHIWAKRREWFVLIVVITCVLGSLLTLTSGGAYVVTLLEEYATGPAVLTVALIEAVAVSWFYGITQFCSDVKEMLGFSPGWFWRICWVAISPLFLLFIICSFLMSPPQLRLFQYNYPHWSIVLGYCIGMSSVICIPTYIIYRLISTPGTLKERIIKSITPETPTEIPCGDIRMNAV

Structure (SMILES)	IC50 [1] [nM]	5-HT1A Function Imax (maximum inhibitory effect) [1]	Ki [2] [nM]	Ki [3] [nM]	melting point [°C]
C1=C(c2c[nH]c3ccccc23)CCN(CC2COc3ccc4ncncc4c3O2)C1 (stereo not drawn) [Example 2, 2-[(4-(1H-Indol-3-yl)-3,6-dihydropyridin-1(2H)-yl)methyl]-2,3-dihydro[1,4]dioxino[2,3-f]quinazoline]	379	(100)	15	2.87	
Fc1ccc2[nH]cc(C3=CCN(CC4COc5ccc6ncncc6c5O4)CC3)c2c1 (stereo not drawn) (hydrate or solvate) [Example 1, 2-[(4-(5-Fluoro-1H-indol-3-yl)-3,6-dihydropyridin-1(2H)-yl)methyl]-2,3-dihydro[1,4]dioxino[2,3-f]quinazoline]					233 to 235
Cc1nc2ccc3c(c2c[n+]1[O-])OC(CN1CC=C(c2c[nH]c4ccccc24)CC1)CO3 (stereo not drawn) [Example 3, 2-[(4-(1H-Indol-3-yl)-3,6-dihydropyridin-1(2H)-yl)methyl]-8-methyl-2,3-dihydro[1,4]dioxino[2,3-f]quinazoline 9-oxide]	440	(94.0)	25.6	4.64	
CCc1ncc2c3c(ccc2n1)OCC(CN1CC=C(c2c[nH]c4ccccc24)CC1)O3 (stereo not drawn) [Example 5, 2-[(4-(1H-Indol-3-yl)-3,6-dihydropyridin-1(2H)-yl)methyl]-8-ethyl-2,3-dihydro[1,4]dioxino[2,3-f]quinazoline]	209	(100)	8.27	4.25	203 to 211
Cc1ncc2c3c(ccc2n1)OCC(CN1CC=C(c2c[nH]c4ccccc24)CC1)O3 (stereo not drawn) (hydrate or solvate) [Example 4, 2-[(4-(1H-Indol-3-yl)-3,6-dihydropyridin-1(2H)-yl)methyl]-8-methyl-2,3-dihydro[1,4]dioxino[2,3-f]quinazoline]					198 to 202
C1=C(c2c[nH]c3ccccc23)CCN(CC2COc3ccc4ncncc4c3O2)C1 (stereo not drawn) (hydrate or solvate) [Example 2, 2-[(4-(1H-Indol-3-yl)-3,6-dihydropyridin-1(2H)-yl)methyl]-2,3-dihydro[1,4]dioxino[2,3-f]quinazoline]					204 to 207
Cc1ncc2c3c(ccc2n1)OCC(CN1CC=C(c2c[nH]c4ccccc24)CC1)O3 (stereo not drawn) [Example 4, 2-[(4-(1H-Indol-3-yl)-3,6-dihydropyridin-1(2H)-yl)methyl]-8-methyl-2,3-dihydro[1,4]dioxino[2,3-f]quinazoline]	116	(100)	2.4	2.26	
Fc1ccc2[nH]cc(C3=CCN(CC4COc5ccc6ncncc6c5O4)CC3)c2c1 (stereo not drawn) [Example 1, 2-[(4-(5-Fluoro-1H-indol-3-yl)-3,6-dihydropyridin-1(2H)-yl)methyl]-2,3-dihydro[1,4]dioxino[2,3-f]quinazoline]	499	(94.0)	51.5	2.24	
